Columns and labels:
hMEC epithelial cells = assay: Cell viability monitored in real time (Incucyte), cell confluence as read-out, with increasing concentration of anisomycin; type: cell-based, human; details: real-time monitoring
From the text: (§1) Cell lines and cell viability. The epithelial and mesenchymal cellular models were kindly provided by Alain Puisieux's team (17). Briefly, the human epithelial mammary cell (hMECs) were used to derive EMT-related cellular models. The hMEC cell line corresponds to epithelial cells (Lonza) that were immortalized by lentiviral transduction allowing hTERT overexpression. The hMEC cell line was then transduced with lentiviral vector to induce stable over-expression of the murine EMT-TF ZEB1 and to promote EMT and thus generates the hMEC-ZEB1 mesenchymal cell line. The hMEC cellular models were maintained in DM EM-F12 (Gibo) supplemented with 0.5 μg/ml hydrocortisone, 10 ng/ml EGF, […] insulin, 10% fetal calf serum, 100 μg/ml streptomycin and 100 units/ml of penicillin. Selective pressure was maintained with puromycin for hMEC-ZEB1. Cell viability was monitored in real-time using Incucyte Live-Cell analysis system (Statorius). Cells were plated in 96-well plates without selective pressure for 24 hrs before addition of the anisomycin antibiotic (range concentration 2-200 nM). DMSO was used as negative control.
(§2) At day 6, difference in cell viability was determined using cell confluence as a read-out.

[1] = system: hMEC-ZEB1 mesenchymal cells; assay: as above; type: cell-based, human
From the text: as §1, §2

## COc1ccc(C[C@H]2NC[C@H](O)[C@H]2OC(C)=O)cc1 [anisomycin]
hMEC epithelial cells
  change in cell morphology: no change in cell morphology was observed
[1]; hMEC-ZEB1 mesenchymal cells compared with hMEC epithelial cells, anisomycin 2-200 nM, day 6
  sensitivity to anisomycin treatment (cell viability, cell confluence as read-out): more sensitive
[1]; mesenchymal cells, increasing concentration of anisomycin, real-time monitoring
  change in cell morphology: no change in cell morphology was observed
